In data set [1] the test system is Lymph node T cells from CD28-deficient mice. The data set is described as follows: Proliferation of retrovirally reconstituted T cells from CD28-deficient mice. It is filed as cell-based, mouse. The settings on record: single stimulus, anti-CD3 or PMA alone; 36-h culture; quadruplicate.
The subject of data set [2] is c-fos promoter in Jurkat cells. Put plainly: c-fos luciferase reporter, Jurkat cells. It is filed as cell-based. The settings on record: presence and absence of CD28 antibodies, vs wild-type mCD28. On the technique in general: A reporter such as luciferase makes a cellular process visible.
The subject of a further data set is c-Src. The settings on record: coexpression in 293 cells; cited from earlier work.

For the molecule `CCCCCCCCCCCCCC(=O)O[C@@H]1[C@@H](C)[C@@]2(O)[C@@H](C=C(CO)C[C@]3(O)C(=O)C(C)=C[C@@H]23)[C@@H]2C(C)(C)[C@]12OC(C)=O` [PMA], the “proliferation ([3H]thymidine), control retrovirus” value in data set [1] was “proliferated weakly”.
With “mutated form of mCD28: CD28 with alanines substituted for prolines 187 and 190”, the “induction of c-fos promoter (in words)” value in data set [2] is reported as “significantly impaired in its ability to induce the c-fos promoter”.

B1: SIN: SH3 binding protein, SIN (protein, UniProt Q64355 1-560, looked up)
Embryonal Fyn-associated …: MAIATSAQLARALYDNTAESPQELSFRRGDVLRVLQREGAGGLDGWCLCSLHGQQGIVPANRVKLLPAGPAPKPSLCPASPTQPGSSCPTPERGCEEQEVYVIPPPARPCSASGLPARSCSPSSDSIYKVPRGNGMQLTASRDVAEVYDVPPNILRAPSSCPYDSPASFSCPVAPVVPQPPREDEAPYDVPLALKPPAELERDPEWEGGREPGPPLYAAPSNLKRASALLNLYEAPEELLANGESRDADEGIYDVPLLGPEPPSPEPPVASSSTDLDTVAQLPTRSSPPQHRPRLPSTESLSRRPLPALPVSEAPAPSPAPSPAPGRKGSIQDRPLPPPPPCLPGYGGLKPEGDPECREVANDPAGPHNEYEGIPMAEEYDYVHLKGVDTAQGSRPLDKAFPVDPELLERGLAERKEALSPEEPLVLSTGDLQLLHFYAGQCQSHYSALQAAVAALVASTQANQPPCLFVPHGKRVVVAAHRLVFVGDTLGRLAASAALRAQVGAAGTMLAQTLRATVLAVKGAALGYPSDTAVQEMARCVAELAGQALRFTTLLDGLLP
B1: the “c-Src kinase activity induction” value with c-Src is “can be induced”.

These data come from PMC2195584 (The Journal of Experimental Medicine, 1999).
